Molecular target: Pim-1 (Homo sapiens (Human), UniProt P11309)
Assay: Pim kinase binding activity assay (Example 901), PIM-1 enzyme, Caliper microfluidic peptide phosphorylation
Type: biochemical
Settings: 20 pM PIM-1, 10 μM ATP, 1 μM FAM-peptide, 90 minutes at room temperature
Outline: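 The readout was microfluidic mobility-shift separation of a FAM-tagged Pim-specific peptide, excited at 488 nm and read at 530 nm, with Ki calculated from percent conversion. Reactions held 20 pM PIM-1, 1 μM peptide and 10 μM ATP in pH 7.2 HEPES/MgCl2/DTT buffer, ran 90 min at room temperature and were stopped with EDTA.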

Sequence of Pim-1 (P11309 whole entry): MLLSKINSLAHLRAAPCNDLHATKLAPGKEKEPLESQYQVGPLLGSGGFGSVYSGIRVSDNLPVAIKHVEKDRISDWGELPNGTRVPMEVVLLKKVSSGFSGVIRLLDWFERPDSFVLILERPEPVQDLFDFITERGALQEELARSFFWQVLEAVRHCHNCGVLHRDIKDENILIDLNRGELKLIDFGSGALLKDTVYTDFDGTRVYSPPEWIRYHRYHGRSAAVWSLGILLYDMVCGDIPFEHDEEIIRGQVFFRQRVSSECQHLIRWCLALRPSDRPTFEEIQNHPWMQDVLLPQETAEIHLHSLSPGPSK

| Structure (SMILES) | Ki |
| --- | --- |
| N[C@@H]1CN(c2cccc(-c3n[nH]c4cnc(-c5cccnc5)cc34)n2)CC[C@@H]1F (relative stereo) [Example 452, cis-4-fluoro-1-(6-(5-(pyridin-3-yl)-1H-pyrazolo[3,4-c]pyridin-3-yl)pyridin-2-yl)piperidin-3-amine] | 0.046 nM |
| Cn1cc(-c2cc3c(-c4cccc(N5CCCCC(N)C5)n4)n[nH]c3cn2)cn1 (centres unmarked) [Example 226, 1-(6-(5-(1-methyl-1H-pyrazol-4-yl)-1H-pyrazolo[3,4-c]pyridin-3-yl)pyridin-2-yl)azepan-3-amine] | 0.051 nM |
| CCn1cc(-c2cc3c(-c4cccc(N5CCN[C@@H](C)C5)n4)n[nH]c3cn2)cn1 [Example 396, (S)-5-(1-ethyl-1H-pyrazol-4-yl)-3-(6-(3-methylpiperazin-1-yl)pyridin-2-yl)-1H-pyrazolo[3,4-c]pyridine] | 0.081 nM |
| N[C@@H]1CCCN(c2nc(-c3n[nH]c4cnc(-c5cccnc5)cc34)ccc2Br)C1 [Example 290, (R)-1-(3-bromo-6-(5-(pyridin-3-yl)-1H-pyrazolo[3,4-c]pyridin-3-yl)pyridin-2-yl)piperidin-3-amine] | 0.082 nM |
| Cn1cc(-c2cc3c(-c4ccnc(N5CCC[C@H](N)C5)n4)n[nH]c3cn2)cn1 [Example 365, (S)-1-(4-(5-(1-methyl-1H-pyrazol-4-yl)-1H-pyrazolo[3,4-c]pyridin-3-yl)pyrimidin-2-yl)piperidin-3-amine] | 0.0941 nM |
| CCn1cc(-c2cc3c(-c4cccc(N5CCC[C@@H](NC)C5)n4)n[nH]c3cn2)cn1 [Example 482, (R)-1-(6-(5-(1-ethyl-1H-pyrazol-4-yl)-1H-pyrazolo[3,4-c]pyridin-3-yl)pyridin-2-yl)-N-methylpiperidin-3-amine] | 0.147 nM |
| N[C@H]1CCCN(c2nc(-c3n[nH]c4cnc(-c5cccnc5)cc34)ccc2Br)CC1 [Example 312, (S)-1-(3-bromo-6-(5-(pyridin-3-yl)-1H-pyrazolo[3,4-c]pyridin-3-yl)pyridin-2-yl)azepan-4-amine] | 0.029 nM |
| NC(=O)c1ccnc(-c2n[nH]c3cnc(-c4cccnc4)cc23)c1 [Example 302, 2-(5-(pyridin-3-yl)-1H-pyrazolo[3,4-c]pyridin-3-yl)isonicotinamide] | 6 nM |
| Cc1ccc(-c2n[nH]c3cnc(-c4cnn(C)c4)cc23)nc1N1CCN(CCS(C)(=O)=O)C(C)(C)C1 [Example 428, 3-(6-(3,3-dimethyl-4-(2-(methylsulfonyl)ethyl)piperazin-1-yl)-5-methylpyridin-2-yl)-5-(1-methyl-1H-pyrazol-4-yl)-1H-pyrazolo[3,4-c]pyridine] | 0.112 nM |
| c1cncc(-c2cc3c(-c4ccn(C5CCNCC5)n4)n[nH]c3cn2)c1 [Example 215, 3-(1-(piperidin-4-yl)-1H-pyrazol-3-yl)-5-(pyridin-3-yl)-1H-pyrazolo[3,4-c]pyridine] | 0.313 nM |
| CCn1cc(-c2cc3c(-c4cccc(N5CCNC[C@H](O)C5)n4)n[nH]c3cn2)cn1 [Example 410, (S)-1-(6-(5-(1-ethyl-1H-pyrazol-4-yl)-1H-pyrazolo[3,4-c]pyridin-3-yl)pyridin-2-yl)-1,4-diazepan-6-ol] | 0.039 nM |
| c1cncc(-c2cc3c(CNCC4CCNCC4)n[nH]c3cn2)c1 [Example 113, 1-(piperidin-4-yl)-N-((5-(pyridin-3-yl)-1H-pyrazolo[3,4-c]pyridin-3-yl)methyl)methanamine] | 3200 nM |
| O[C@@H]1CCN(c2nc(-c3n[nH]c4cnc(-c5cccnc5)cc34)ccc2Br)C1 [Example 293, (R)-1-(3-bromo-6-(5-(pyridin-3-yl)-1H-pyrazolo[3,4-c]pyridin-3-yl)pyridin-2-yl)pyrrolidin-3-ol] | 0.412 nM |
| Fc1ccccc1-c1n[nH]c2cnc(-c3cnccn3)cc12 [Example 219, 3-(2-fluorophenyl)-5-(pyrazin-2-yl)-1H-pyrazolo[3,4-c]pyridine] | 33.5 nM |
| N[C@@H]1CCC[C@H](Nc2cccc(-c3n[nH]c4cnc(-c5cccnc5)cc34)n2)C1 [Example 341, (1S,3R)-N1-(6-(5-(pyridin-3-yl)-1H-pyrazolo[3,4-c]pyridin-3-yl)pyridin-2-yl)cyclohexane-1,3-diamine] | 0.077 nM |
| NCCNc1cccc(-c2n[nH]c3cnc(-c4cccnc4)cc23)n1 [Example 143, N1-(6-(5-(pyridin-3-yl)-1H-pyrazolo[3,4-c]pyridin-3-yl)pyridin-2-yl)ethane-1,2-diamine] | 0.312 nM |
| Cc1ccc(F)c(-c2n[nH]c3cnc(-c4cnn(C)c4)cc23)c1 [Example 205, 3-(2-fluoro-5-methylphenyl)-5-(1-methyl-1H-pyrazol-4-yl)-1H-pyrazolo[3,4-c]pyridine] | 6.08 nM |
| NCCC1CCN(c2cccc(-c3n[nH]c4cnc(-c5cccnc5)cc34)n2)C1 (centres unmarked) [Example 333, 2-(1-(6-(5-(pyridin-3-yl)-1H-pyrazolo[3,4-c]pyridin-3-yl)pyridin-2-yl)pyrrolidin-3-yl)ethanamine] | 0.13 nM |
| CCc1ccc(-c2n[nH]c3cnc(-c4cnn(C)c4)cc23)nc1N1CCC[C@H](N)C1 [Example 429, (S)-1-(3-ethyl-6-(5-(1-methyl-1H-pyrazol-4-yl)-1H-pyrazolo[3,4-c]pyridin-3-yl)pyridin-2-yl)piperidin-3-amine] | 0.022 nM |

| Structure (SMILES) | Ki |
| --- | --- |
| Cn1cc(-c2cc3c(-c4cccc(N5CCC(O)CC5)n4)n[nH]c3cn2)cn1 [Example 294, 1-(6-(5-(1-methyl-1H-pyrazol-4-yl)-1H-pyrazolo[3,4-c]pyridin-3-yl)pyridin-2-yl)piperidin-4-ol] | 0.168 nM |
| Cc1n[nH]c2cnc(-c3cccnc3)cc12 [Example 101, 3-methyl-5-(pyridin-3-yl)-1H-pyrazolo[3,4-c]pyridine] | 190 nM |
| FC(F)(F)Cn1cc(-c2cc3c(-c4cccc(N5CCNCC5)n4)n[nH]c3cn2)cn1 [Example 488, 3-(6-(piperazin-1-yl)pyridin-2-yl)-5-(1-(2,2,2-trifluoroethyl)-1H-pyrazol-4-yl)-1H-pyrazolo[3,4-c]pyridine] | 0.022 nM |
| FC(F)(F)c1cccc(-c2n[nH]c3cnc(-c4cccnc4)cc23)c1 [Example 126, 5-(pyridin-3-yl)-3-(3-(trifluoromethyl)phenyl)-1H-pyrazolo[3,4-c]pyridine] | 15.9 nM |
| N[C@@H]1CCN(c2cccc(-c3n[nH]c4cnc(-c5cccnc5)cc34)n2)C1 [Example 276, (R)-1-(6-(5-(pyridin-3-yl)-1H-pyrazolo[3,4-c]pyridin-3-yl)pyridin-2-yl)pyrrolidin-3-amine] | 0.188 nM |
| Cn1cc(-c2cc3c(-c4ccnc(N5CCC[C@@H](N)C5)n4)n[nH]c3cn2)cn1 [Example 364, (R)-1-(4-(5-(1-methyl-1H-pyrazol-4-yl)-1H-pyrazolo[3,4-c]pyridin-3-yl)pyrimidin-2-yl)piperidin-3-amine] | 0.052 nM |
| Cn1cc(-c2cc3c(-c4cccc(N[C@H]5CC[C@@H](N)CC5)n4)n[nH]c3cn2)cn1 [Example 251, (1s,4s)-N1-(6-(5-(1-methyl-1H-pyrazol-4-yl)-1H-pyrazolo[3,4-c]pyridin-3-yl)pyridin-2-yl)cyclohexane-1,4-diamine] | 0.04 nM |
| CCn1cc(-c2cc3c(-c4cccc(N5CCCCC(N)C5)n4)n[nH]c3cn2)cn1 (centres unmarked) [Example 518, 1-(6-(5-(1-ethyl-1H-pyrazol-4-yl)-1H-pyrazolo[3,4-c]pyridin-3-yl)pyridin-2-yl)azepan-3-amine] | 0.082 nM |
| C[C@@]1(N)CCCN(c2cccc(-c3n[nH]c4cnc(-c5cccnc5)cc34)n2)C1 [Example 347, (R)-3-methyl-1-(6-(5-(pyridin-3-yl)-1H-pyrazolo[3,4-c]pyridin-3-yl)pyridin-2-yl)piperidin-3-amine] | 0.11 nM |
| Cn1cc(-c2cc3c(-c4cccc(N5CCC[C@](C)(O)C5)n4)n[nH]c3cn2)cn1 [Example 423, (S)-3-methyl-1-(6-(5-(1-methyl-1H-pyrazol-4-yl)-1H-pyrazolo[3,4-c]pyridin-3-yl)pyridin-2-yl)piperidin-3-ol] | 0.128 nM |
| O=C1CCCN1c1n[nH]c2cnc(-c3cccnc3)cc12 [Example 258, 1-(5-(pyridin-3-yl)-1H-pyrazolo[3,4-c]pyridin-3-yl)pyrrolidin-2-one] | 80.9 nM |
| N[C@H]1CCCN(Cc2n[nH]c3cnc(-c4cn[nH]c4)cc23)C1 [Example 111, (S)-1-((5-(1H-pyrazol-4-yl)-1H-pyrazolo[3,4-c]pyridin-3-yl)methyl)piperidin-3-amine] | 4000 nM |
| O=C1N(c2n[nH]c3cnc(-c4cccnc4)cc23)CCC12CCNCC2 [Example 295, 2-(5-(pyridin-3-yl)-1H-pyrazolo[3,4-c]pyridin-3-yl)-2,8-diazaspiro[4.5]decan-1-one] | 39.9 nM |
| N[C@H]1CCN(c2cccc(-c3n[nH]c4cnc(-c5cccnc5)cc34)n2)C1 [Example 268, (S)-1-(6-(5-(pyridin-3-yl)-1H-pyrazolo[3,4-c]pyridin-3-yl)pyridin-2-yl)pyrrolidin-3-amine] | 0.0268 nM |
| CCn1cc(-c2cc3c(-c4cccc(N5C[C@@H](N)C[C@@H](F)C5)n4)n[nH]c3cn2)cn1 [Example 385, (3S,5R)-1-(6-(5-(1-ethyl-1H-pyrazol-4-yl)-1H-pyrazolo[3,4-c]pyridin-3-yl)pyridin-2-yl)-5-fluoropiperidin-3-amine] | 0.131 nM |
| CN1CC(c2cc3c(-c4ccccc4)n[nH]c3cn2)CC1=O (centres unmarked) [Example 263, 1-methyl-4-(3-phenyl-1H-pyrazolo[3,4-c]pyridin-5-yl)pyrrolidin-2-one] | 241 nM |
| C=Cc1ccc(-c2n[nH]c3cnc(-c4cnn(CC)c4)cc23)nc1N1CCC[C@H](N)C1 [Example 431, (S)-1-(6-(5-(1-ethyl-1H-pyrazol-4-yl)-1H-pyrazolo[3,4-c]pyridin-3-yl)-3-vinylpyridin-2-yl)piperidin-3-amine] | 0.023 nM |
| OC1(c2cccc(-c3n[nH]c4cnc(-c5cccnc5)cc34)n2)CCNCC1 [Example 422, 4-(6-(5-(pyridin-3-yl)-1H-pyrazolo[3,4-c]pyridin-3-yl)pyridin-2-yl)piperidin-4-ol] | 300 nM |
| CCn1cc(-c2cc3c(-c4cc(C)ccn4)n[nH]c3cn2)cn1 [Example 492, 5-(1-ethyl-1H-pyrazol-4-yl)-3-(4-methylpyridin-2-yl)-1H-pyrazolo[3,4-c]pyridine] | 23.2 nM |

— patent US9260425B2 (Genetech, Inc., priority 2011, dated 2016)
